Reference: US9499493B2, “2,4-pyrimidinediamine compounds and their uses” (Rigel Pharmaceuticals, Inc., priority 2002, dated 2016)
Values joined by “and” are separate entries in the source; they are usually repeats but may differ in a detail not shown here. Identical values can stand only once.

Legend:
[1] = system: bone marrow derived mast cells (BMMC); test: BMMC high cell density IgE activation: TNFalpha; assay type: cell-based, mouse; details: anti-IgE, second part of TABLE 1, read-out: BMMC anti-IgE TNF-alpha IC50
Outline: (§1)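 IgE-sensitized BMMC (1-3×10^6 cells/ml, MT buffer) were pretreated with compound for 1 h at 37 °C in 0.5% DMSO, then stimulated with DNP-BSA (6× stimulus, 60 ng/ml) for 1 h. Supernatant was taken, and cells were re-incubated 4–5 h in WEI-conditioned medium with compound. Mediators were quantified by ELISA.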

[2] = system: cultured human mast cells (CHMC); test: CHMC high cell density IgE activation: histamine; assay type: cell-based; details: anti-IgE activation
Outline: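 IgE-sensitized CHMC at 1-2×10^6 cells/ml were pretreated with compound for 1 h at 37 °C (0.5% DMSO final), then anti-IgE-stimulated for 1 h and supernatant collected. Hexosaminidase was read with a fluorogenic substrate. Pellets were re-incubated 7 h with compound before supernatant ELISAs.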

[3] = system: IgE-induced degranulation of tissue mast cells; test: Mouse model of passive cutaneous anaphylaxis (PCA); assay type: in vivo; details: for % Inhibition (PCA) / Plasma level: PO, 1.5% Avicel/water, pretreatment 15 min
Description: This model provides a direct measure of IgE-induced degranulation of tissue mast cells. In this model, IgE primed animals are exposed to an allergen challenge, and the change in permeability of dermal vasculature that results from histamine release from mast cells is measured by change in the amount of dye leakage into surrounding tissue. Inhibition of mediator release by compounds that modulate mast cell degranulation is easily measured by extracting the dye from the tissue.
In the PCA assay mice are passively sensitized by intradermal injection with anti-dinitrophenol (DNP) IgE antibodies (Day −1). At predetermined times animals are treated with the test agent (Day 0). The modulatory effect of the agent on cutaneous mast cell degranulation is measured following intravenous injection of DNP conjugated to human serum albumin (HSA-DNP), together with Evans blue dye. The resulting cross-linking of the IgE receptor and subsequent mast cell degranulation-induced increase in vascular permeability is determined by measuring the amount of dye extravasation into the tissue. Dye is extracted from the tissue by formamide, and the absorbance of this extract is read at 620 nm.

[4] = Pilot dose finding studies (oral); details: in vivo
[5] = Sheep model of allergic asthma (Ascaris suum challenge); assay type: in vivo; details: aqueous suspension; for LAR and AHR (in words) / AHR (% inhibition) / EAR (% inhibition) / LAR (% inhibition): 45 mg/sheep; for LAR and AHR (in words): 60 minutes prior to allergen challenge; for AHR (% inhibition) / EAR (% inhibition) / LAR (% inhibition): pretreatment 60 min
Description: Sheep develop bronchoconstriction within minutes of exposure to inhaled antigen (Ascaris suum), with maximal airflow obstruction during the early allergic response (EAR). Release of preformed mast cell mediators is likely responsible for this early phase of airflow obstruction. […] In the sheep, AHR develops a few hours following antigen challenge, and can persist for up to 2 weeks.
In the sheep model of allergic asthma, sheep are administered aerosols of test article via an endotracheal tube, followed by an aerosol challenge with antigen extracted from the roundworm, Ascaris suum, to which the sheep are naturally allergic. Allergen challenge leads to direct bronchoconstriction (both EAR and LAR) and a persistent non-specific AHR. These three characteristics are similar to those seen in human allergic asthmatics. The activity of the test agent is determined by changes in the lung resistance (RL), which is calculated from measurements of transpulmonary pressure, flow, and respiratory volume. […] The LAR is a less pronounced increase in RL, which starts approximately 5-6 hours following allergen challenge and is resolved by 8 hours post-challenge. Twenty-four hours after the challenge, a dose response to carbachol is measured to determine the AHR, which is expressed as the dose of carbachol required to increase RL by 400% over baseline. (This measurement is referred to as the provocative concentration of carbachol that elicits a 400% increase in RL over baseline (PC400). The data are compared to historical control data for the same individual when administered a saline control aerosol and challenged with Ascaris suum.

[6] = system: bone marrow derived mast cells (BMMC); test: BMMC high cell density IgE activation: IL-6; assay type: cell-based, mouse; details: anti-IgE, second part of TABLE 1
Outline: as §1

SMILES | IC50 [1] | IC50 [2] | % Inhibition (PCA) ([3]; 30 mg/kg) | Plasma level ([3]; 30 mg/kg) | % Inhibition (PCA) ([3]; 100 mg/kg) | Plasma level ([3]; 100 mg/kg) | % Inhibition (PCA) ([3]; 300 mg/kg) | Plasma level ([3]; 300 mg/kg) | circulating exposure levels at which active ([3]; mouse, in vivo) | FcεR-mediated vascular leakage with increasing doses (in words) ([3]; solution (67% PEG/33% citrate buffer) or aqueous suspension (1.5% Avicel)) | multiple (7-day) doses not tolerated [4] | LAR and AHR (in words) [5] | AHR (% inhibition) [5] | EAR (% inhibition) [5] | LAR (% inhibition) [5] | EAR (in words) [5] | IC50 [6]
CNC(=O)COc1cccc(Nc2ncc(F)c(Nc3ccc4c(c3)NCCO4)n2)c1 [R921219, N4-(1,4-Benzoxazin-6-yl)-5-fluoro-N2-[3-(N-methylamino)carbonylmethyleneoxyphenyl]-2,4-pyrimidinediamine] | 39 nM | 162 nM | 25% | 400 ng/mL | 68% | 4000 ng/mL | 92% | 11000 ng/mL | approximately 10 μg/ml | dose-dependent inhibition | ≥ 200 mg/kg/day | blocked | 90% | 54% and 56% | 75% | greatly reduced | 
CNC(=O)COc1cccc(Nc2ncc(F)c(Nc3cccc(O)c3)n2)c1 [R926508, 5-Fluoro-N4-(3-hydroxyphenyl)-N2-[3-(N-methylamino)carbonylmethyleneoxyphenyl]-2,4-pyrimidinediamine] | 54 nM | 105 nM |  |  |  |  |  |  |  |  |  | blocked | 88% | 21% | 90% | greatly reduced | 26 nM
